Experimental data published in US20100331336A1, “PROTECTIVE EFFECT OF HIGH DOSE FOLATE ON MYCARDIAL ISCHEMIA” (Universiteit Antwerpen, priority 2008, published 2010).

Legend:
myocardial superoxide = experiment: Myocardial superoxide by lucigenin-enhanced chemiluminescence; type: in vivo, rat; conditions: for decline of O2^− generation on pre-incubation of extracts: 100 μM BH4
Procedure: (§1) Adult Wistar rats received FA (10 mg/day unless otherwise stated) or placebo by oral gavage for 7-days prior to performing the ischemia/reperfusion (IR) experiment. A total of 131 rats were used, the sample size reflecting the requirement for multiple assays that could not be performed in each animal, but were rather obtained in different subsets of the total group. Animals were anesthetized (pentobarbital 60 mg/kg), intubated via tracheotomy, and ventilated (Harvard Apparatus, Mass.). ECG was monitored and temperature maintained at 37.5° C. The left anterior artery was exposed through the 4-5th intercostal space and a suture placed around it, and transient coronary artery ligation performed for 30 min with (n=85) or without (n=46) 90 min reperfusion. In one subgroup of reperfused animals (n=9), FA was provided 10 minutes after the onset of LAD occlusion (i.e. 20 minutes before the onset of reperfusion), delivered as an IV-bolus.
(§2) Superoxide was assessed by lucigenin (5 μM)-enhanced chemiluminescence (Beckman LS60001C, n=23)^22 and fluorescent microtopography (dichlorodihydro-fluorescein diacetate, DCF, n=16) and dihydroethidium, DHE, n=24) (Gupte et al., 2005). The direct anti-oxidants effects of folic acid were analysed using an in vitro xanthine/xanthine oxidase system (Antoniades et al., 2006) and compared with Tempol.

[1] = system: isolated hearts of adult Wistar rats; experiment: In vitro IR model, isolated perfused hearts: infarct size and LDH; set-up: species or system rat
Procedure: (§3) Adult Wistar rats (n=28) were anesthetized (pentobarbital 60 mg/kg), and hearts rapidly excised and mounted onto a retrograde perfusion system (Emka, Paris, France) using warmed, oxygenated buffered Krebs-Henseleit solution at constant perfusion pressure (75 mmHg). Hearts were paced at 300 bpm, and maintained in an unloaded state. Coronary flow was measured by an in-line ultrasonic flow probe (Transonic Systems, Ithaca, N.Y., USA). After 30 min equilibration, vasodilators drugs (bradykinin and sodium nitroprusside) were infused by bolus injection (50 μl, 10^−8-10^−5.5 M i.c.) and coronary flow reserve assessed at constant perfusion pressure. After re-establishing baseline, hearts received FA (4.5 10^−6M i.c.) or vehicle for 30 min. Afterwards the hearts were subjected to 40-min zero coronary flow followed by 40 min of reperfusion. Coronary effluent was collected, concentrated (Sartorius-Sipan, Lier, Belgium) and analysed for lactate dehydrogenase (Vitros 950AT, O. C. D., Beerse, Belgium). Coronary vasodilator responses to the same two agents were repeated following reperfusion.
(§4) Infarct size was assessed in 31 rats, with area at risk (AAR) determined by negative staining with Evans blue injected during coronary occlusion, and subsequent staining with TTC to detect myocardial necrosis. LV (free wall+whole septum), AAR (neg Evan's Blue) and area of necrosis (TTC-white) were measured by planimetry (Soft Imaging system GmbH, Analysis pro version 3.00), and digitized images subjected to equivalent background subtraction, brightness, and contrast enhancement for improved clarity and sharpness. For in vitro studies, TTC staining was not preceded by Evans' blue staining because global ischemia was created. Contraction band necrosis was assessed in vivo rat hearts (n=22) fixed in Carnoy solution and stained with Masson's trichrome. Serial adjacent fields were examined throughout the full LV to calculate the percent myocardium with contraction bands present. Similar analysis was performed for TUNEL-positivity (Chemicon Intern, Temecula, Calif.), also expressed as percent LV area.

[2] = system: isolated hearts of adult Wistar rats; experiment: Coronary flow and vasodilator response in isolated hearts; set-up: species or system rat
Procedure: as §3

[3] = system: Adult Wistar rats, coronary artery ligation; experiment: HPLC analysis of high energy phosphate metabolism in anterior wall samples; type: in vivo, rat; conditions: FA pre-treatment; 30 min ischemia, versus controls
Procedure: as §1, with “In one subgroup of reperfused animals (n=9), FA was provided 10 minutes after the onset of LAD occlusion (i.e. 20 minutes before the onset of reperfusion), delivered as an IV-bolus.” left out
Snap frozen samples (n=24) from the anterior wall (±FA pre-treatment; ±30 min ischemia, no reperfusion) were de-proteinized and subjected to HPLC analysis of water-soluble low-molecular weight compounds reflecting tissue oxid-oreductive and energy status. High-energy phosphates, oxypurines (hypoxanthine, xanthine, and uric acid), nucleosides (inosine and adenosine), malondialdehyde, and reduced and oxidized glutathione were measured by ion-pairing HPLC as described (Takimoto et al., 2005).

[4] = system: Adult Wistar rats, coronary artery ligation; experiment: Infarct size analysis and histology, in vivo IR; set-up: species or system rat
Procedure: as §1, §4

eNOS = eNOS monomer/dimer formation and NOS enzymatic activity in IR tissue; type: in vivo, rat
Procedure: as §1
SDS-resistant eNOS dimers and monomers were assayed on ischemia/reperfusion-tissue (n=16) using low temperature SDS-PAGE as previously described (Takimoto. et al., 2005) NOS enzymatic activity was assessed by arginine to citrulline conversion assay from extracts obtained from frozen myocardium (n=15) (Takimoto. et al., 2005).

serum homocysteine = conditions: achievable with 0.8 mg/d; cited from earlier work
[5] = system: superoxide generated by xanthine/xanthine oxidase; experiment: In vitro xanthine/xanthine oxidase O2− generating system; type: biochemical; conditions: lucigenin-enhanced chemiluminescence, FIG. 5F
Procedure: as §2

[6] = system: Adult Wistar rats, coronary artery ligation; experiment: Regional myocardial blood flow by microspheres; type: in vivo, rat; conditions: FA pre-treatment
Procedure: as §1
Regional myocardial blood flow was assessed (n=12) by nuclear-activated microspheres ([…], BioPal, Worcester, MA) injected in the left atrium (0.3 ml of 2.5*10^6 spheres/ml) at baseline and after 5 and 30 min of ischemia (Reinhardt et al., 2001). Total counts per minute (cpm) were normalized to weight and results from the ischemic zone normalized to the remote region to provide relative blood flow before and during ischemia.

[7] = system: Adult Wistar rats, coronary artery ligation; experiment: In vivo ischemia/reperfusion model, pressure-volume loop hemodynamics; set-up: species or system rat; conditions: FA 10 mg/d oral pre-treatment 7 days; 30 min LAD occlusion
Procedure: as §1
(§5) LV function was assessed in vivo by pressure-volume loops (n=14) during both ischemia and following reperfusion. […] Open chest myocardial anterior wall motion was also measured using a Sequoia—Acuson C256 equipped with 15 MHz linear transducer (Sequoia C256 Echocardiography System, Acuson Corporation, Mountain View, Calif.) at the parasternal view of the left ventricle chamber as described.

[8] = system: Adult Wistar rats, coronary artery ligation; experiment: Open chest echocardiography during LAD occlusion; type: in vivo, rat; conditions: FA pre-treatment; at 30 min ischemia
Procedure: as §1, §5

[9] = system: Adult Wistar rats, coronary artery ligation; experiment: Ischemia and reperfusion arrhythmia, in vivo IR; set-up: species or system rat
Procedure: as §1

[10] = FA 10 mg i.v. after 10 min of coronary occlusion

SMILES: C[C@H](O)[C@H](O)[C@H]1CNc2nc(N)[nH]c(=O)c2N1 [BH4, tetrahydrobiopterin]
- decline of O2^− generation on pre-incubation of extracts (myocardial superoxide; extracts of FA pre-treated hearts): 52.1±11.3%
- decline of O2^− generation on pre-incubation of extracts (myocardial superoxide; extracts of vehicle treated IR hearts): 90.9±0.7%

SMILES: Nc1nc2ncc(CNc3ccc(C(=O)N[C@@H](CCC(=O)O)C(=O)O)cc3)nc2c(=O)[nH]1 [FA, folic acid]
- infarct size in isolated hearts ([1]; FA 4.5 10^−6M i.c. 30 min, 40 min zero flow, 40 min reperfusion): 7.7±2.8%
- reduction of myocardial necrosis in hearts studied in vitro ([1]; FA pre-treatment, FIG. 4D): ~80%
- lactate dehydrogenase in the coronary effluent ([1]; FA pre-treatment, after ischemia-reperfusion): less lactate dehydrogenase
- Bradykinin induced maximal rise in coronary flow ([2]; after IR, hearts pre-treated with FA): 122.0±11.3%
- coronary flow after ischemia ([2]; isolated hearts): 8.9 ± 1.4 mL/min
- coronary flow at baseline ([2]; isolated hearts): 11.4 ± 13.8 mL/min
- myocardial ATP and ADP during ischemia [3]: maintained at higher levels
- TUNEL staining, % LV [4, 10]: 4.3±1.3 % LV
- area at risk (AAR) [4, 10]: 52.4±5.5%
- contraction band necrosis, % LV [4, 10]: 5.1±0.7 % LV
- infarct size relative to AAR ([4]; FA 10 mg i.v. after 10 min of coronary occlusion, n=5): 3.0±2.2%
- infarct size, % area at risk ([4]; oral FA 10 mg/d pre-treatment 7 days, 30 min ischemia, 90 min reperfusion): 3.8±1.2%
- Reperfusion contraction band necrosis, % of the LV ([4]; oral FA pre-treatment, IR): 4.6%±1.2
- TUNEL-positive myocytes, % of LV fields ([4]; oral FA pre-treatment, IR): 4.3±1.3%
- infarct size with lower doses ([4]; pre-treatment by 40% and 10% of the principal FA dose (1 and 4 mg/d)): decline in infarct size occurred
- eNOS ratio of dimer/monomer (eNOS; FA-pre-treated IR hearts): near normal
- NOS activity, arginine-citrulline conversion (eNOS; treated vs. non-treated hearts, p=0.08): not significant improved
- decrease in serum homocysteine (serum homocysteine): 3 µmol/L
- direct anti-oxidant effect [5]: substantial anti-oxidant effects
- ratio of ischemic/remote zone myocardial perfusion, decline ([6]; after 5 min of LAD ligation): −77.7±5.1%
- flow compared to the remote region ([6]; at 30 minutes of ischemia): −78.4±9.3%
- Peak LV pressure (systolic blood pressure) change with LAD occlusion [7]: changed little
- Ejection fraction [8]: 72.8±1.2%
- anterior-septal thickening [8]: 37.±5.3%
- reperfusion arrhythmia occurrence ([9]; FA treated): no FA treated animal
- lethal ventricular arrhythmia triggered by ischemia, % of rats ([9]; FA-treated): 8.3%
- decline of myocardial superoxide (lucigenin chemiluminescence) (myocardial superoxide; FA pre-treated animals, during ischemia and after 90 minutes reperfusion): ~50%
